The values that follow come from patent US20240360409A1, “METHOD FOR PRODUCING HIGHLY PROLIFERATIVE CELL, AND HIGHLY PROLIFERATIVE CELL AND USE THEREOF” (TOKYO MEDICAL UNIVERSITY, priority 2021, published 2024).

The assay deals with Normal Human Astrocytes (NHA). The assay is described as follows: Long-term culturing of human astrocytes using medium containing inhibitor (Example 1). The assay is classed as cell-based. As to conditions: for Number of days up to day of final passage / Passage number: NHA, 41 days of culturing, Y 10 μM, A 0.5 μM. How it is done:
Long-term culturing of human astrocytes was performed using the following materials, reagents, and products for culturing.
• Normal Human Astrocytes (NHA) (CC-2565, Lonza Group AG)
• Culture medium: AGM Astrocyte Growth Medium Bullet Kit (CC-3186, Lonza Group AG) (composition of AGM: basal medium, FBS (3% (v/v)), L-glutamine, ascorbic acid, hEGF, insulin, and antibiotic) • Inhibitor Y: CultureSure (registered trademark) Y-27632 (034-24024, FUJIFILM Wako Pure Chemical Corporation), final concentration: 10 μM • Inhibitor A: CultureSure (registered trademark) A-83-01(035-24113, FUJIFILM Wako Pure Chemical Corporation), final concentration: 0.5 μM • Cell detachment agent: Accutase (AT104, Innovative Cell Technologies, Inc.) • Cell buffer: phosphate buffered saline (Dulbecco's formula; without calcium and magnesium) (BNDSBN200, KAC Co., Ltd.) • Medium for cell freezing: CELLBANKER 1 (CB011 TaKaRa Bio Inc. (NIPPON ZENYAKU KOGYO CO., LTD.)) • Cell culturing dish 60 mm (150462, Thermo Fisher Scientific Inc.) • Cell culturing dish 100 mm (150466, Thermo Fisher Scientific Inc.) • Cell culturing dish 150 mm (150468, Thermo Fisher Scientific Inc.) • Stericup Quick Release-GP Sterile Vacuum Filtration System (S2GPU02RE, Merck Millipore) • Inhibitor-free medium for culture supernatant collection: Dulbecco's Modied Eagle Medium (DMEM) (C11995500CP, Gibco (registered trademark), Thermo Fisher Scientific Inc.) and N-2 Supplement (x100) (17502-048, Gibco (registered trademark), Thermo Fisher Scientific Inc.)
The long-term culturing was performed in accordance with the following procedure. A frozen tube of the human astrocyte cells (NHA) was thawed in a water bath at 37° C. Next, the lysed cells were transferred to the culture medium so that the total volume was 10 mL and subjected to centrifugation at 180×g for 3 minutes at room temperature, and then the medium was removed. The cells were divided into 4 groups; a group to which only the inhibitor Y was added (hereinafter, the NHA-Y group), a group to which only the inhibitor A was added (hereinafter, the NHA-A group), a group to which the inhibitor Y and the inhibitor A were added (hereinafter, the NHA-YA group), and a group to Ih no inhibitor was added (normal group).
The medium was replaced every other day or every two days with fresh culture medium containing each inhibitor (or not containing any inhibitor). When the confluency reached 80 to 90%, the cells were detached using the cell detachment agent, and the cells were suspended in the culture medium containing each inhibitor (or not containing any inhibitor) and passaged into a 6-well plate at a seeding density of 4.2×10^3 cells/cm^2. While continuing the passaging, the culturing was performed for 41 days in the culture medium containing each inhibitor (or not containing any inhibitor).
The cell passage number and the number of days up to the day of final passage in each group are indicated in the following Table 1, and the correlations between the number of culturing days and the total number of cells are indicated in Table 2.

For the compound `Cc1cccc(-c2nn(C(=S)Nc3ccccc3)cc2-c2ccnc3ccccc23)n1` [A, 3-(6-methylpyridin-2-yl)-4-(4-quinolyl)-1-phenylthiocarbamoyl-1H-pyrazole], the “Number of days up to day of final passage” value is 30 days and the Passage number amounted to 4 times. Further, under “culturing day 0”, the Number of cells is reported as 8.00 ×10^4 cells. Besides, the Number of cells (culturing day 5) is 55.75 ×10^4 cells. Where the note is “culturing day 15”, the Number of cells is given as 264.81 ×10^4 cells. For the setting “culturing day 23”, the Number of cells is 595.83 ×10^4 cells. Moreover, the Number of cells (culturing day 30) is on record as 1005.46 ×10^4 cells.

On to `C[C@@H](N)[C@H]1CC[C@H](C(=O)Nc2ccncc2)CC1` [Y], for which the “Number of days up to day of final passage” value is recorded as 29 days and the Passage number is 5 times. Further, the Number of cells (culturing day 0) is recorded as 8.00 ×10^4 cells. For the setting “culturing day 5”, the Number of cells is on record as 87.25 ×10^4 cells. Also, the Number of cells (culturing day 8) is given as 245.39 ×10^4 cells. For the same compound, for the setting “culturing day 13”, the Number of cells is 391.09 ×10^4 cells. Further, where the note is “culturing day 19”, the Number of cells is 733.30 ×10^4 cells. Besides, the Number of cells (culturing day 29) is on record as 756.21 ×10^4 cells.
